Data on 31 molecules can be found in patent US10485815B2, “Substituted nucleosides, nucleotides and analogs thereof” (Alios BioPharma, Inc., priority 2012, dated 2019).

In assay [1] the test system is human parainfluenza virus 3 (hPIV3, ATCC: VR-93). Nature of the assay: Parainfluenza virus-3 (PIV-3) RT-PCR assay in A549 cells. The class given is cell-based. Conditions: Human respirovirus 3, 168 h, hPIV3 MOI 0.1, 7 days after infection.
The subject of a further assay is RSV A2 (ATCC: VR-1540). Nature of the assay: RSV RT-PCR based assay in HEp-2 cells. The note with it: human respiratory syncytial virus, 96 h; RT-PCR assay, HEp-2 cells, RSV A2 MOI 0.1, 4 days after infection; read-out: EC50. The assay is classed as cell-based.
For the next assay, the system named is human PIV type 3. Briefly: Parainfluenza virus-3 (PIV-3) plaque assay in MA-104 cells. The class given is cell-based. Conditions: MA104, 72 hours infection. As for the experimental part:
MA-104 cells were grown in 24-well plates to a confluency of 90% in the presence of minimal essential medium (MEM) supplemented with 10% fetal bovine serum and antibiotics (C-EMEM). The cells were then washed twice with non-complete minimal essential medium (NC-EMEM). Test articles were dissolved in DMSO to a stock concentration of 10 mM. An aliquot of 0.5 mL of the test article at various concentrations was then inoculated in triplicate wells and incubated for 60 minutes at 37° C. with 5% CO2 for the diffusion of test article into MA-104 cells. […] An aliquot of 0.1 mL was then inoculated into all the wells except for the negative and test article toxicity control wells. Upon infection, the plates were incubated for 72 hours at 37° C. at 5% CO2. After incubation, the plates were examined under microscopy to record cytotoxicity. The supernatants collected for viral quantification using a standard plaque assay using MA-104 cells as the indicator cells. To perform the plaques assay, MA-104 cells were grown to confluence in 24-well plates. The cells were washed with serum-free medium prior to inoculation of duplicate wells with serial 10-fold dilutions of supernatant sample. After 1 hour incubation at 37° C., the samples were aspirated and 1.0 mL of methyl cellulose overlay media was added to each well. […]

The test system of another assay is human metapneumovirus. Nature of the assay: Human metapneumovirus (hMPV) TCID50 assay in LLC-MK2 cells. The class given is cell-based. Conditions: 168 h, 7 days infection. As to the method: LLC-MK2 cells were grown in 24-well plates to a confluency of 90% in the presence of minimal essential medium (MEM) supplemented with 10% fetal bovine serum and antibiotics (C-EMEM). The cells were then washed twice with non-complete minimal essential medium (NC-EMEM). Test articles were dissolved in DMSO to a stock concentration of 10 mM. An aliquot of 0.5 mL of the test article at various concentrations was then inoculated in triplicate wells and incubated for 60 minutes at 37° C. with 5% CO2 for the diffusion of test article into LLC-MK2 cells. […] An aliquot of 0.1 mL was then inoculated into all the wells except for the negative and test article toxicity control wells. Upon infection, the plates were incubated for 7 days at 37° C. at 5% CO2. After incubation, the plates were examined under microscopy to record cytotoxicity. The supernatants collected for viral quantification using a standard TCID50 assay using LLC-MK2 cells as the indicator cells. The data was analyzed with Prism software with EC50 defined as drug concentration that reduced the viral load 50% from the viral control (VC).

The subject of a further assay is hPIV3-eGFP. Briefly: microbe, parasite or virus in culture. The note with it: Human respirovirus 3, A549, 72 h. The class given is cell-based, human parainfluenza virus 3.
The test system of assay [2] is Influenza strain A/WSN/33 (H1N1). Nature of the assay: microbe, parasite or virus in culture. The class given is cell-based. The note with it: A549, 20 h, read-out: % Inhibition.
The target of the next assay is RSV polymerase (Human respiratory syncytial virus A, UniProt P28887). Briefly: biochemical.
RSV polymerase, sequence (P28887 whole entry, looked up): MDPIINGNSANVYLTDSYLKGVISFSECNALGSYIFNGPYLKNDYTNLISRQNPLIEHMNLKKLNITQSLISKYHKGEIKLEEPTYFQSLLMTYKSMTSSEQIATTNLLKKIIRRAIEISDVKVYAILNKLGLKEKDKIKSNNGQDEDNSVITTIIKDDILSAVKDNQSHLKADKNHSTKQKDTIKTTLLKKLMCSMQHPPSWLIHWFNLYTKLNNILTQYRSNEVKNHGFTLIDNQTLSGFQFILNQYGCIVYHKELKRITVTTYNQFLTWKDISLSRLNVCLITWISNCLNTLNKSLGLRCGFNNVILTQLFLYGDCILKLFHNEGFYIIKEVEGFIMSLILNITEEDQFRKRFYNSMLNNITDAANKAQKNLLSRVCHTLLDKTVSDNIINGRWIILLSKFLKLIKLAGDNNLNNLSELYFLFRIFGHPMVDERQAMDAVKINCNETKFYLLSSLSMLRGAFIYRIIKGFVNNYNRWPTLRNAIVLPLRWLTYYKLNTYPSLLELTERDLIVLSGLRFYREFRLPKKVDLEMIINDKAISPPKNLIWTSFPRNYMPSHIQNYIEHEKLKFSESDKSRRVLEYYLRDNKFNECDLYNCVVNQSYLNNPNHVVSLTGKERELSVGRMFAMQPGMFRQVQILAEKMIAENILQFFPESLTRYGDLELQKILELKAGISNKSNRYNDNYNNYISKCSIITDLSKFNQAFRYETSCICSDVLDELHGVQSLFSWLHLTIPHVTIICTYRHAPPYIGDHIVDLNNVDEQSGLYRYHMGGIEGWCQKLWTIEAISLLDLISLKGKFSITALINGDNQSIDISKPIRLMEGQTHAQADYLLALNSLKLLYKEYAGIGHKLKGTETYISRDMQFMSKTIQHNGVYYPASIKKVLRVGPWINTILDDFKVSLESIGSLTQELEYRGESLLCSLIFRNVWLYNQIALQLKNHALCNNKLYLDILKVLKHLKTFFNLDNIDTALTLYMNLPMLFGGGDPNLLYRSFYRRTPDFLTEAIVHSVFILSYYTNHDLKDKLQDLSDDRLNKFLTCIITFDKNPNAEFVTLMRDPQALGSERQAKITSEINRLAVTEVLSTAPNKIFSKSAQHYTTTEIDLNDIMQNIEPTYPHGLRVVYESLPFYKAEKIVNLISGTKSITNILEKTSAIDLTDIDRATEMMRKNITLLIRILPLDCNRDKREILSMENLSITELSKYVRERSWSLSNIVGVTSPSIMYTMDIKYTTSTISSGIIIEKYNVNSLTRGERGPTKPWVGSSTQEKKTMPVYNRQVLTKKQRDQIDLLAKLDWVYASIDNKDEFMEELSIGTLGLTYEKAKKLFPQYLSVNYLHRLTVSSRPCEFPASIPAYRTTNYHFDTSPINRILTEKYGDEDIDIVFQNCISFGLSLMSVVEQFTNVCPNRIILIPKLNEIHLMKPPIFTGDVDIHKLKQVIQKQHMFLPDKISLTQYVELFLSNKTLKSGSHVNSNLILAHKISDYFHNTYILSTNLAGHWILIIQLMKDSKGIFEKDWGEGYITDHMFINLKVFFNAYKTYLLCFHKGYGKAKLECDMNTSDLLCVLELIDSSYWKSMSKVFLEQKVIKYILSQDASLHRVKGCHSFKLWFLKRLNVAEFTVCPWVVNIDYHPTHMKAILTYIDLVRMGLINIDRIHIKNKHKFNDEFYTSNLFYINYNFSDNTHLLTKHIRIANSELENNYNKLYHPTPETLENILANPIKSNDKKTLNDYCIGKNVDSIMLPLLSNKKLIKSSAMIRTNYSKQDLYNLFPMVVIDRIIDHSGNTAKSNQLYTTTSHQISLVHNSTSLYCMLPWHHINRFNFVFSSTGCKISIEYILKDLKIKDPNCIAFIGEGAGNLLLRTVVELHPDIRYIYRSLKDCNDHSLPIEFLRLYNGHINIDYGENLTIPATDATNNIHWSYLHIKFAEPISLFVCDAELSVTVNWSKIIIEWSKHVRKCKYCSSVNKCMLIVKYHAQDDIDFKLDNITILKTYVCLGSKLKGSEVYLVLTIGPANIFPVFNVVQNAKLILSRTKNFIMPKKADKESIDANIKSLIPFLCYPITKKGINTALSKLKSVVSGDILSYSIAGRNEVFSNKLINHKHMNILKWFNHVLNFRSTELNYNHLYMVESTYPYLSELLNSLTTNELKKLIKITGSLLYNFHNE

Take `CC[C@]1(CO)O[C@@H](n2ccc(N)nc2=O)[C@H](F)[C@@H]1O` [Compound 3a]: the EC50 in assay [1] is under 20 µM; in the assay on RSV A2 (ATCC: VR-1540) it was under 1 µM; in the assay on human PIV type 3, under 20 µM; with human metapneumovirus, under 20 µM; in the assay on hPIV3-eGFP, under 20 µM; in assay [2], 100 to 250 µM.

Consider `C=C[C@]1(CO)O[C@@H](n2ccc(N)nc2=O)[C@H](F)[C@@H]1O` [Compound 4a], for which the EC50 with RSV A2 (ATCC: VR-1540) was 10 to 100 µM; in the assay on hPIV3-eGFP it was over 100 µM; in assay [2], 100 to 250 µM.

Take `Nc1ccn([C@@H]2OC(CO)(CO)[C@@H](O)[C@H]2F)c(=O)n1` [Compound 6a]: the values for the EC50 (in assay [1]; with hPIV3-eGFP; in assay [2]) were over 100 µM, over 100 µM and 100 to 250 µM, respectively.

On to `Nc1ccn([C@@H]2O[C@@](CO)(CCl)[C@@H](O)[C@H]2F)c(=O)n1` [Compound 7a], for which the EC50 in assay [1] is under 20 µM; in the assay with RSV A2 (ATCC: VR-1540), under 1 µM; in the assay with human PIV type 3, under 20 µM; in the assay with human metapneumovirus it was under 20 µM; with hPIV3-eGFP, under 20 µM; in assay [2] it was 100 to 250 µM.

`C[C@]1(CO)O[C@@H](n2ccc(N)nc2=O)[C@H](F)[C@@H]1O` [Compound 9a]: the EC50 is over 100 µM in assay [1], 10 to 100 µM in the assay with RSV A2 (ATCC: VR-1540), over 100 µM with hPIV3-eGFP and 100 to 250 µM in assay [2].

With `CO[C@]1(CO)O[C@@H](n2ccc(N)nc2=O)[C@H](F)[C@@H]1O` [Compound 22a], the EC50 is over 100 µM in assay [1], 10 to 100 µM in the assay on RSV A2 (ATCC: VR-1540), over 100 µM with hPIV3-eGFP and 100 to 250 µM in assay [2].

`Nc1ccn([C@@H]2O[C@@](CO)(CF)[C@@H](O)[C@H]2F)c(=O)n1` [Compound 23a]: the EC50 was over 100 µM in assay [1], under 1 µM in the assay with RSV A2 (ATCC: VR-1540), over 100 µM with hPIV3-eGFP and 100 to 250 µM in assay [2].

As for `CO[C@]1(CO)O[C@@H](n2cnc3c(=O)[nH]c(N)nc32)[C@H](F)[C@@H]1O` [Compound 28a], the EC50 in the assay with RSV A2 (ATCC: VR-1540) is 1 to 10 µM; in assay [2] it was 100 to 250 µM.

`CC(C)(C)C(=O)OCOP(=O)(OCOC(=O)C(C)(C)C)OC[C@@]1(CCl)O[C@@H](n2ccc(N)nc2=O)[C@H](F)[C@@H]1O` [Compound 30a]: the EC50 with RSV A2 (ATCC: VR-1540) is under 1 µM; in assay [2] it was 100 to 250 µM.

With `CC[C@]1(COP(=O)(OCOC(=O)C(C)(C)C)OCOC(=O)C(C)(C)C)O[C@@H](n2ccc(N)nc2=O)[C@H](F)[C@@H]1O` [Compound 31a], the EC50 fell in the range of 1 to 10 µM in the assay with RSV A2 (ATCC: VR-1540) and 100 to 250 µM in assay [2].

Regarding `CC[C@]1(COP(=O)(O)OP(=O)(O)OP(=O)(O)O)O[C@@H](n2ccc(N)nc2=O)[C@H](F)[C@@H]1O` [Compound 36a], on RSV polymerase, the EC50 was under 2 µM.

Consider `C#C[C@]1(COP(=O)(O)OP(=O)(O)OP(=O)(O)O)O[C@@H](n2ccc(N)nc2=O)[C@H](F)[C@@H]1O` [Compound 36c], for which, at RSV polymerase, the EC50 is under 2 µM.

On RSV polymerase, `CC(F)[C@]1(COP(=O)(O)OP(=O)(O)OP(=O)(O)O)O[C@@H](n2ccc(N)nc2=O)[C@@H](F)[C@H]1O` (some centres unmarked) [Compound 36e] displayed an EC50 of under 2 µM.

With `CC(C)CC[C@]1(COP(=O)(O)OP(=O)(O)OP(=O)(O)O)O[C@@H](n2ccc(N)nc2=O)[C@H](F)[C@@H]1O` [Compound 36i], the EC50 on RSV polymerase lay within 2 to 10 µM.

Turning to `C=C(C)[C@]1(COP(=O)(O)OP(=O)(O)OP(=O)(O)O)O[C@@H](n2ccc(N)nc2=O)[C@H](F)[C@@H]1O` [Compound 36j], on RSV polymerase, the EC50 was 2 to 10 µM.

Regarding `CC[C@]1(CO)O[C@@H](n2cnc3c(=O)[nH]c(N)nc32)[C@H](F)[C@@H]1O` [Compound 39a], the EC50 in the assay with RSV A2 (ATCC: VR-1540) is 1 to 10 µM; in assay [2], 20 to 100 µM.

As for `CC(F)[C@]1(CO)O[C@@H](n2ccc(N)nc2=O)[C@H](F)[C@@H]1O` (some centres unmarked) [Compound 40a], the EC50 (in assay [1]; in the assay on hPIV3-eGFP) was over 100 µM each time.

As to `COC[C@]1(CO)O[C@@H](n2ccc(N)nc2=O)[C@H](F)[C@@H]1O` [Compound 43a], the EC50 (in assay [1]; in the assay with hPIV3-eGFP) was over 100 µM throughout.

Turning to `O=c1ccn([C@@H]2O[C@](CCl)(COP(=O)(O)OP(=O)(O)OP(=O)(O)O)[C@@H](O)[C@H]2F)c(=O)[nH]1` [Compound 56a], the EC50 on RSV polymerase is 2 to 10 µM.

Consider `Nc1ccn([C@@H]2O[C@](CF)(COP(=O)(O)OP(=O)(O)OP(=O)(O)O)[C@@H](O)[C@H]2F)c(=O)n1` [Compound 56c], for which the EC50 on RSV polymerase is under 2 µM.

At RSV polymerase, `Nc1ccn([C@@H]2O[C@@](COP(=O)(O)OP(=O)(O)OP(=O)(O)O)(C3CC3)[C@@H](O)[C@H]2F)c(=O)n1` [Compound 56d] showed an EC50 of under 2 µM.

In the case of `CC(F)[C@]1(COP(=O)(O)OP(=O)(O)OP(=O)(O)O)O[C@@H](n2ccc(N)nc2=O)[C@H](F)[C@@H]1O` (some centres unmarked) [Compound 56e], the EC50 on RSV polymerase is under 2 µM.

`CSC[C@]1(CO)O[C@@H](n2ccc(N)nc2=O)[C@H](F)[C@@H]1O` [Compound 69a]: the results for the EC50 (in assay [1]; in the assay with RSV A2 (ATCC: VR-1540); in the assay on hPIV3-eGFP) were under 20 µM, under 1 µM and 20 to 100 µM, respectively.

For the molecule `Nc1ccn([C@@H]2O[C@@](CO)(CBr)[C@@H](O)[C@H]2F)c(=O)n1` [Compound 71a], the EC50 is over 100 µM in assay [1], under 1 µM in the assay with RSV A2 (ATCC: VR-1540) and over 100 µM in the assay on hPIV3-eGFP.

Molecule `COC[C@]1(COP(=O)(O)OP(=O)(O)OP(=O)(O)O)O[C@@H](n2ccc(N)nc2=O)[C@@H](F)[C@H]1O` [Compound 97a] registered an EC50 at RSV polymerase of under 2 µM.

On RSV polymerase, `CSC[C@]1(COP(=O)(O)OP(=O)(O)OP(=O)(O)O)O[C@@H](n2ccc(N)nc2=O)[C@@H](F)[C@H]1O` [Compound 97b] showed an EC50 of under 2 µM.

The molecule `Nc1ccn([C@@H]2O[C@](CBr)(COP(=O)(O)OP(=O)(O)OP(=O)(O)O)[C@H](O)[C@@H]2F)c(=O)n1` [Compound 97c] came in with an EC50 on RSV polymerase of under 2 µM.

`Nc1nc(=O)n([C@@H]2O[C@](CCl)(COP(=O)(O)OP(=O)(O)OP(=O)(O)O)[C@H](O)[C@@H]2F)cc1F` [Compound 97g]: the EC50 on RSV polymerase is under 2 µM.

For the molecule `Nc1ncnc2c1ncn2[C@@H]1O[C@](CCl)(COP(=O)(O)OP(=O)(O)OP(=O)(O)O)[C@@H](O)[C@H]1F` [Compound 98b], the EC50 on RSV polymerase is under 2 µM.

Take `Nc1ncnc2c1ncn2[C@@H]1O[C@](CF)(COP(=O)(O)OP(=O)(O)OP(=O)(O)O)[C@@H](O)[C@H]1F` [Compound 98c]: at RSV polymerase, the EC50 is under 2 µM.

Regarding `[N-]=[N+]=N[C@]1(CO)O[C@@H](n2ccc(N)nc2=O)[C@@H](O)[C@@H]1O` [Compound 113a], the EC50 (in assay [1]; in the assay on hPIV3-eGFP) was over 100 µM each time.
